These results are taken from patent publication US9920090B2, “Betulinic acid derivatives with HIV maturation inhibitory activity” (priority 2014, dated 2018).

The test relates to recombinant NL4-3 virus (nef section replaced with Renilla luciferase gene, Gag P373S). The test can be described thus: HIV Cell Culture Assay (luciferase reporter virus in MT-2 cells). Type of test: cell-based. To be noted: NL43. On the procedure: MT-2 cells and 293T cells were obtained from the NIH AIDS Research and Reference Reagent Program. MT-2 cells were propagated in RPMI 1640 media supplemented with 10% heat inactivated fetal bovine serum, […]. The 293T cells were propagated in DMEM media supplemented with 10% heat inactivated fetal bovine serum (FBS), 100 units/mL penicillin G and 100 μg/mL streptomycin. The proviral DNA clone of NL4-3 was obtained from the NIH AIDS Research and Reference Reagent Program. A recombinant NL4-3 virus, in which a section of the nef gene from NL4-3 was replaced with the Renilla luciferase gene, was used as a reference virus. In addition, residue Gag P373 was converted to P373S. Briefly, the recombinant virus was prepared by transfection of the altered proviral clone of NL4-3. Transfections were performed in 293T cells using LipofectAMINE PLUS from Invitrogen (Carlsbad, Calif.), according to manufacturer's instruction. The virus was titered in MT-2 cells using luciferase enzyme activity as a marker. Luciferase was quantitated using the Dual Luciferase kit from Promega (Madison, Wis.), with modifications to the manufacturer's protocol. The diluted Passive Lysis solution was pre-mixed with the re-suspended Luciferase Assay Reagent and the re-suspended Stop & Glo Substrate (2:1:1 ratio). Fifty (50) μL of the mixture was added to each aspirated well on assay plates and luciferase activity was measured immediately on a Wallac TriLux (Perkin-Elmer). Antiviral activities of inhibitors toward the recombinant virus were quantified by measuring luciferase activity in cells infected for 4-5 days with NLRluc recombinants in the presence serial dilutions of the inhibitor.
On the technique in general: A reporter such as luciferase makes a cellular process visible.
The EC50 is the concentration giving half of the maximal effect. Turning to `C=C(C)[C@@H]1CC[C@]2(C(=O)O)C[C@@H]3OC(C)(C)O[C@H]4C[C@H]5C(C)(C)C(c6ccc(C(=O)O)cc6)=CC[C@]5(C)[C@H]5CC[C@H]([C@@H]12)[C@]3(C)[C@]45C` [Example 1, (1R,3aS,4aS,4a1R,7aS,7a1R,8aR,12aS,12bR,14aR,14bR)-10-(4-carboxyphenyl)-4a1,6,6,7a1,9,9,12a-heptamethyl-1-(prop-1-en-2-yl)-2,3,3a,4,4a,4a1,7a,7a1,8,8a,9,12,12a,12b,13,14,14a,14b-octadecahydro-1H-cyclopenta[1,2]chryseno[4,5-def][1,3]dioxepine-3a-carboxylic acid], the EC50 came out at 40 nM.

Turning to `C=C(C)[C@@H]1CC[C@]2(C(=O)O)C[C@H](O)[C@]3(C)[C@H](CC[C@@H]4[C@@]5(C)CC=C(c6ccc(C(=O)O)cc6)C(C)(C)[C@@H]5C[C@H](O)[C@]43C)[C@@H]12` [Example 2, (1R,3aS,5S,5aR,5bR,6S,7aR,11aS,11bR,13aR,13bR)-9-(4-carboxyphenyl)-5,6-dihydroxy-5a,5b,8,8,11a-pentamethyl-1-(prop-1-en-2-yl)-2,3,3a,4,5,5a,5b,6,7,7a,8,11,11a,11b,12,13,13a,13b-octadecahydro-1H-cyclopenta[a]chrysene-3a-carboxylic acid], the EC50 is 1560 nM. To `C=C(C)[C@@H]1CC[C@]2(NCCN3CCS(=O)(=O)CC3)C[C@H](O)[C@]3(C)[C@H](CC[C@@H]4[C@@]5(C)CC=C(c6ccc(C(=O)O)cc6)C(C)(C)[C@@H]5C[C@H](O)[C@]43C)[C@@H]12` [Example 3, 4-((1R,3aS,5S,5aR,5bR,6S,7aR,11aS,11bR,13aR,13bR)-3a-((2-(1,1-dioxidothiomorpholino)ethyl)amino)-5,6-dihydroxy-5a,5b,8,8,11a-pentamethyl-1-(prop-1-en-2-yl)-2,3,3a,4,5,5a,5b,6,7,7a,8,11,11a,11b,12,13,13a,13b-octadecahydro-1H-cyclopenta[a]chrysen-9-yl)benzoic acid] belongs 17 nM; to `CC(C)[C@@H]1CC[C@]2(C(=O)O)CC[C@]3(C)[C@H](CC[C@@H]4[C@@]5(C)C(=O)C=C(c6ccc(C(=O)O)cc6)C(C)(C)[C@@H]5CC[C@]43C)[C@@H]12` [Example 4, (1S,3aS,5aR,5bR,7aS,11aS,11bS,13aR,13bR)-9-(4-carboxyphenyl)-1-isopropyl-5a,5b,8,8,11a-pentamethyl-11-oxo-2,3,3a,4,5,5a,5b,6,7,7a,8,11,11a,11b,12,13,13a,13b-octadecahydro-1H-cyclopenta[a]chrysene-3a-carboxylic acid], 29 nM. The result for `CC(C)[C@@H]1CC[C@]2(C(=O)O)CC[C@]3(C)[C@H](CC[C@@H]4[C@@]5(C)[C@@H](O)C=C(c6ccc(C(=O)O)cc6)C(C)(C)[C@@H]5CC[C@]43C)[C@@H]12` [Example 5, (1S,3aS,5aR,5bR,7aS,11S,11aS,11bS,13aR,13bR)-9-(4-carboxyphenyl)-11-hydroxy-1-isopropyl-5a,5b,8,8,11a-pentamethyl-2,3,3a,4,5,5a,5b,6,7,7a,8,11,11a,11b,12,13,13a,13b-octadecahydro-1H-cyclopenta[a]chrysene-3a-carboxylic acid] reads 410 nM; that for `CC(C)[C@@H]1CC[C@]2(C(=O)O)CC[C@]3(C)[C@H](CC[C@@H]4[C@@]5(C)[C@H](O)C=C(c6ccc(C(=O)O)cc6)C(C)(C)[C@@H]5CC[C@]43C)[C@@H]12` [Example 6, (1S,3aS,5aR,5bR,7aS,11R,11aS,11bS,13aR,13bR)-9-(4-carboxyphenyl)-11-hydroxy-1-isopropyl-5a,5b,8,8,11a-pentamethyl-2,3,3a,4,5,5a,5b,6,7,7a,8,11,11a,11b,12,13,13a,13b-octadecahydro-1H-cyclopenta[a]chrysene-3a-carboxylic acid], 1730 nM.

As to `CC(C)[C@@H]1CC[C@]2(C(=O)NCCCN3CCS(=O)(=O)CC3)CC[C@]3(C)[C@H](CC[C@@H]4[C@@]5(C)[C@H](F)C=C(c6ccc(C(=O)O)cc6)C(C)(C)[C@@H]5CC[C@]43C)[C@@H]12` [Example 8, 4-((1S,3aS,5aR,5bR,7aS,11R,11aS,11bS,13aR,13bR)-3a-((3-(1,1-dioxidothiomorpholino)propyl)carbamoyl)-11-fluoro-1-isopropyl-5a,5b,8,8,11a-pentamethyl-2,3,3a,4,5,5a,5b,6,7,7a,8,11,11a,11b,12,13,13a,13b-octadecahydro-1H-cyclopenta[a]chrysen-9-yl)benzoic acid], the EC50 stood at 3.31 nM.

Consider `CC(C)[C@@H]1CC[C@]2(N)CC[C@]3(C)[C@H](CC[C@@H]4[C@@]5(C)C(=O)C=C(c6ccc(C(=O)O)cc6)C(C)(C)[C@@H]5CC[C@]43C)[C@@H]12` [Example 9, 4-((1S,3aS,5aR,5bR,7aS,11aS,11bS,13aR,13bR)-3a-amino-1-isopropyl-5a,5b,8,8,11a-pentamethyl-11-oxo-2,3,3a,4,5,5a,5b,6,7,7a,8,11,11a,11b,12,13,13a,13b-octadecahydro-1H-cyclopenta[a]chrysen-9-yl)benzoic acid], for which the EC50 was 1.2 nM. `CC(C)[C@@H]1CC[C@]2(NCCN3CCS(=O)(=O)CC3)CC[C@]3(C)[C@H](CC[C@@H]4[C@@]5(C)C(=O)C=C(c6ccc(C(=O)O)cc6)C(C)(C)[C@@H]5CC[C@]43C)[C@@H]12` [Example 10, 4-((1S,3aS,5aR,5bR,7aS,11aS,11bS,13aR,13bR)-3a-((2-(1,1-dioxidothiomorpholino)ethyl)amino)-1-isopropyl-5a,5b,8,8,11a-pentamethyl-11-oxo-2,3,3a,4,5,5a,5b,6,7,7a,8,11,11a,11b,12,13,13a,13b-octadecahydro-1H-cyclopenta[a]chrysen-9-yl)benzoic acid]: the EC50 amounted to 1.2 nM. The result for `CC(C)[C@@H]1CC[C@]2(C(=O)O)CC[C@]3(C)[C@H](CC[C@@H]4[C@@]5(C)C[C@@H]6O[C@]6(c6ccc(C(=O)O)cc6)C(C)(C)[C@@H]5CC[C@]43C)[C@@H]12` [Example 11, (1S,3aS,5aR,5bR,7aR,8aS,9aS,10aR,10bR,12aR,12bR)-8a-(4-carboxyphenyl)-1-isopropyl-5a,5b,8,8,10a-pentamethylicosahydro-1H-cyclopenta[7,8]chryseno[2,3-b]oxirene-3a-carboxylic acid] reads 1310 nM.
